# Several values for one entry are separate records, joined by “and”; a condition that tells them apart may be missing. Equal values may be shown once. Marks after values point to notes of the source that are not given here.
# Experiments:
# methyl cholanthrene A [1] = assay: Methyl cholanthrene A tumor, evaluation by elongation of period of survival (Examples 31, 34 and 35); format: in vivo, female BALB/C mice; conditions: for Average number of days of survival ±SE / ILS / Number of mice of no tumor/total number of mice: 25 mg/kg, ip × 9; for Number of mice of no tumor/total number of mice: observed 60 days after transplantation; for Change in body weight after elapse of 10 days: mouse, in vivo
# Protocol: The active compounds, M to 0, mentioned above were severally dissolved in distilled water to obtain aqueous solutions containing the compounds in a fixed concentration of 10 mg/ml. To be specific, to female BALB/C mice (five weeks old) to which methyl cholanthrene A had been transplanted in a ratio of 1.0 x 10^5 cells per mouse, […] for 9 consecutive days to determine the mice's periods of survival. For comparison, mice to which no aqueous solution was administered and mice to which aminonitrosourea was administered were similarly tested.
# [2] = test system: methyl cholanthrene A tumor; assay: Methyl cholanthrene A tumor, evaluation by size of tumor (Examples 31 to 33); format: in vivo, female BALB/C mice; set-up: Average weight of tumor ± SE / Range of average tumor weight after elapse of 21 days ± SE: unit not given here; conditions: 25 mg/kg, ip × 9; for Average weight of tumor ± SE: after elapse of 14 days
# Protocol: A heteropoly acid salt, Na5[IM06O24]•34H2O (Compound M), and other compounds (Compounds N and O ) were severally dissolved in distilled water to obtain aqueous solutions containing the salts in a fixed concentration of 10 mg/ml. To female BALB/C mice (five weeks old) to which methyl cholanthrene A tumor had been transplanted, the aqueous solutions were administered to test the compounds for antineoplastic activity. To be specific, the methyl cholanthrene A was transplanted to the mice at a ratio of 1.0 x 10^5 cells per mouse and the aqueous solutions were administered ([…]) for 9 consecutive days by intraperitoneal injection. On elapse of 14 and 21 days after the stop of the administration, the sizes of tumors in the mice were measured. For comparison, mice to which no aqueous solution was administered and mice to which aminonitrosourea was administered were similarly tested.
# MM-46 breast cancer [3] = format: in vivo, female C3H/He mice; conditions: 100 mg/kg, ip × 9
# Protocol: The active compounds, I to L, mentioned above were severally dissolved in distilled water to obtain aqueous solutions containing the compounds in a fixed concentration of 10 mg/ml. To female C3H/He mice (five weeks old) to which the MM-46 breast cancer had been transplanted in a ratio of 1.0 x 10^5 cells per mouse, the aqueous solutions were continuously administered at a dose of 100 mg/kg of body weight by intraperitoneal injection for nine days to determine the mice's periods of survival. For comparison, mice to which no aqueous solution was administered and mice to which aminonitrosourea was administered were similarly tested.
# MM-46 breast cancer [4] = assay: MM-46 breast cancer, evaluation by size of tumor (Examples 21 to 24); format: in vivo, female C3H/He mice; conditions: for Average weight of tumor / Number of tumorless mice /total number of mice / T/control: 100 mg/kg; for Average weight of tumor / Number of tumorless mice /total number of mice: ip × 9; for T/control: ip×9, tumor weight
# Protocol: A polymolybdate, K6[Mo7022(02)2]8H20 (Compound I), and the aforementioned other compounds (Compounds J to L) were severally dissolved in distilled water to obtain aqueous solutions containing the compounds in a fixed concentration of 10 mg/mi. To female C3H/He mice (five weeks old) to which MM-46 breast cancer had been transplanted, the aqueous solutions were administered to test the compounds for antineoplastic activity. To be more specific, the MM-46 breast cancer was transplanted to the mice at a ratio of 5.0 x 10^5 cells per mouse and the aqueous solutions were continuously administered (at a dose of 100 mg/kg of body weight) by intraperineal injection for nine days. On elapse of 14 days after the stop of the administration, the size of tumor in the mice was measured. For comparison, mice to which the aqueous solution was not administered and mice to which aminonitroso urea was administered were similarly tested.
# [5] = test system: human breast cancer (MX-1); assay: Human breast cancer MX-1, SRC method (Examples 29 and 30); format: in vivo, female ICR/cd-1 mice; conditions: for antineoplastic activity: result in words
# methyl cholanthrene A [6] = assay: Methyl cholanthrene A tumor, evaluation by elongation of period of survival (Examples 17 to 20); format: in vivo, female BALB/C mice; conditions: 100 mg/kg ×9
# Protocol: The aforementioned active compounds, E to H, were severally dissolved in distilled water to obtain aqueous solutions containing the compounds in a fixed concentration of 10 mg/ml. To female BALB/C mice (five weeks old) to which methyl cholanthrene A had been transplanted in a ratio of 1.0 x 10^5 cells per mouse, the aqueous solutions were continuously administered at a dose of 100 mg/kg of body weight for nine days by intraperitoneal injection to determine the mices periods of survival. For comparison, mice to which no aqueous solution was administered and mice to which aminonitrosourea was administered were similarly tested.
# [7] = test system: methyl cholanthrene A tumor; assay: Methyl cholanthrene A tumor, evaluation by weight of tumor (Examples 13 to 16); format: in vivo, female BALB/C mice; conditions: for Average weight of tumor / Number of tumorless mice /total number of mice / T/control: 100 mg/kg; for Average weight of tumor / Number of tumorless mice /total number of mice: ip × 9; for T/control: ip×9, tumor weight
# Protocol: Compound E, an alkali metal salt of polymolybdic acid (Example 13), and other compounds (Compounds F to H) mentioned above were severally dissolved in distilled water to obtain aqueous solutions containing the compounds in a fixed concentration of 10 mg/ml. These aqueous solutions were administered to female BALB/C mice (five weeks old) to which methyl cholanthrene A tumor had been transplanted to test the compounds for antineoplastic activity. To be morespecific, the methyl cholanthrene A was transplanted to the mice in a ratio of 1.0 x 10^5 cells per mouse and the aqueous solution was continuously administered (at a dose of 100 mg/kg of body weight) for nine days by intraperitoneal injection. On elapse of 14 days after the stop of the administration, the tumors in the mice were weighed. For comparison, mice to which the aqeuous solution was not administered and the mice to which aminonitrosourea was administered were similarly tested.
# [8] = 100 mg/kg.ip for nine days, judged by increase of body weight, result in words
# [9] = 100 mg/kg ip(×5), individual mice
# [10] = 100 mg/kg ip(×5), individual mice, listed as Compound II
# [11] = 200 mg/kg ip(×5), individual mice, listed as Compound II
molecule,measurement,setting,value
[NH4]3 H6 [CoMo6O24] • 7H20 [Compound N],Average number of days of survival ±SE,methyl cholanthrene A [1],39.30±3.73(10)*** * days
same,ILS,methyl cholanthrene A [1],57.0%
same,Number of mice of no tumor/total number of mice,methyl cholanthrene A [1],2/10
same,Change in body weight after elapse of 10 days,methyl cholanthrene A [1],(+)0.56
same,Range of average tumor weight after elapse of 21 days ± SE,[2],693.6±144.3 (9)
same,Average weight of tumor ± SE,[2],448.5±166.0 (10)
same,T/C,[2]; tumor weight after 14 days,0.600
same,T/C,[2]; tumor weight after 21 days,0.301
Na3H6 [CrMo6O24] • 8H20 [Compound O],Average number of days of survival ±SE,methyl cholanthrene A [1],35.10±3.16(10)*** * days
same,ILS,methyl cholanthrene A [1],41.0%
same,Number of mice of no tumor/total number of mice,methyl cholanthrene A [1],0/10
same,Change in body weight after elapse of 10 days,methyl cholanthrene A [1],(+)1.22
same,Average weight of tumor ± SE,[2],585.6±166.8 (10)
same,T/C,[2]; tumor weight after 14 days,0.784
same,T/C,[2]; tumor weight after 21 days,0.832
K6 [Mo7O22(O2)2] • 8H2O [Compound I],Average number of days of survival,MM-46 breast cancer [3],33.1±2.9(8) days
same,Average weight of tumor after 14 days,MM-46 breast cancer [3],1135 ±185(8) mg
same,Ratio of elongation of life (5),MM-46 breast cancer [3],100.8
same,ratio of elongation of life,MM-46 breast cancer [3],100.8%
same,Average weight of tumor,MM-46 breast cancer [4],1134.9±184.5(1 0) mg
same,Number of tumorless mice /total number of mice,MM-46 breast cancer [4],0/10
same,T/control,MM-46 breast cancer [4],0.397
same,toxicity,MM-46 breast cancer [4]; [8],very low toxicity
same,T/C,[5]; 100 mg/kg ip(×5),57.28 8* %
same,T7/To,"[5]; 100 mg/kg ip(×5), group mean",0.790±0.077
same,W7/Wo,"[5]; 100 mg/kg ip(×5), group mean",1.068±0.008
same,Body weight 7 days after transplantation (W7),[5]; [9],21.0 g and 20.5 g and 21.4 g and 20.6 g
same,T7/To,[5]; [9],0.875 and 0.941 and 0.760 and 0.586
same,Tumor 7 days after transplantation (T7),[5]; [9],10.5 omu and 8.0 omu and 9.5 omu and 8.5 omu
same,W7/Wo,[5]; [9],1.061 and 1.057 and 1.092 and 1.062
same,antineoplastic activity,[5],strong antineoplastic activity
[NH3 (iso)]6 [Mo7O22(O2)2] • 5H20 [Compound J],Average number of days of survival,MM-46 breast cancer [3],40.6±4.1(6) days
same,Average weight of tumor after 14 days,MM-46 breast cancer [3],385±152 (8) mg
same,Ratio of elongation of life (5),MM-46 breast cancer [3],146.2
same,Average weight of tumor,MM-46 breast cancer [4],385.1±152.3(10 ) mg
same,Number of tumorless mice /total number of mice,MM-46 breast cancer [4],5/10
same,T/control,MM-46 breast cancer [4],0.135
same,T/C,[5]; 100 mg/kg ip(×5),63.53* %
same,T7/To,"[5]; 100 mg/kg ip(×5), group mean",0.876±0.037
same,T7/To,[5]; [10],0.913 and 0.792 and 0.840 and 0.962
same,Tumor 7 days after transplantation (T7),[5]; [10],10.5 omu (2×) and 9.5 omu and 12.5 omu
same,T/C,[5]; 200 mg/kg ip(×5),73.02* %
same,T7/To,"[5]; 200 mg/kg ip(×5), group mean",1.007±0.087
same,T7/To,[5]; [11],1.077 and 1.222 and 0.852 and 0.880
same,Tumor 7 days after transplantation (T7),[5]; [11],14.0 omu and 11.0 omu (2×) and 11.5 omu
same,antineoplastic activity,[5],same degree of antineoplastic activity as that of HCFU
"O.O.O.O.[Na+].[Na+].[Na+].[Na+].[Na+].[Na+].[O]=[Mo](=[O])([O-])[O][Mo](=[O])(=[O])[O][Mo](=[O])([O-])([O-])[O][Mo](=[O])(=[O])[O][Mo](=[O])([O-])([O-])[O][Mo](=[O])(=[O])[O][Mo](=[O])(=[O])[O-] [Compound F, Na6 [Mo7O24] • 4H2O]",Average number of days of survival,methyl cholanthrene A [6],35.0±5.7(8) days
same,Number of toxically killed mice/total number of mice,methyl cholanthrene A [6],0/8
same,Ratio of prolonging life,methyl cholanthrene A [6],55.6%
same,Average weight of tumor,[7],1592.8±257.6(8) mg
same,Number of tumorless mice /total number of mice,[7],0/8
same,T/control,[7],0.618
"O.O.O.O.[Cs+].[Cs+].[Cs+].[Cs+].[Cs+].[Cs+].[O]=[Mo](=[O])([O-])[O][Mo](=[O])(=[O])[O][Mo](=[O])([O-])([O-])[O][Mo](=[O])(=[O])[O][Mo](=[O])([O-])([O-])[O][Mo](=[O])(=[O])[O][Mo](=[O])(=[O])[O-] [Compound H, Cs6 [Mo7O24] • 4H2O]",Average number of days of survival,methyl cholanthrene A [6],32.9±5.5(8) days
same,Number of toxically killed mice/total number of mice,methyl cholanthrene A [6],0/8
same,Ratio of prolonging life,methyl cholanthrene A [6],46.2%
same,Average weight of tumor,[7],1599.5±340.6(8) mg
same,Number of tumorless mice /total number of mice,[7],0/8
same,T/control,[7],0.621
"O.O.O.O.[K+].[K+].[K+].[K+].[K+].[K+].[O]=[Mo](=[O])([O-])[O][Mo](=[O])(=[O])[O][Mo](=[O])([O-])([O-])[O][Mo](=[O])(=[O])[O][Mo](=[O])([O-])([O-])[O][Mo](=[O])(=[O])[O][Mo](=[O])(=[O])[O-] [Compound E, K6 [Mo7O24] • 4H2O]",Average number of days of survival,methyl cholanthrene A [6],35.5±2.2(8) days
same,Number of toxically killed mice/total number of mice,methyl cholanthrene A [6],0/8
same,Ratio of prolonging life,methyl cholanthrene A [6],57.8%
same,Average weight of tumor,[7],1281.6±184.2(8) mg
same,Number of tumorless mice /total number of mice,[7],0/8
same,T/control,[7],0.498
same,toxicity,[7]; [8],very slight toxicity
"O.O.O.O.[Li+].[Li+].[Li+].[Li+].[Li+].[Li+].[O]=[Mo](=[O])([O-])[O][Mo](=[O])(=[O])[O][Mo](=[O])([O-])([O-])[O][Mo](=[O])(=[O])[O][Mo](=[O])([O-])([O-])[O][Mo](=[O])(=[O])[O][Mo](=[O])(=[O])[O-] [Compound G, Li6 [Mo7O24] • 4H2O]",Average number of days of survival,methyl cholanthrene A [6],31.6±5.4(8****) days
same,Number of toxically killed mice/total number of mice,methyl cholanthrene A [6],0/8
same,Ratio of prolonging life,methyl cholanthrene A [6],40.4%
same,Average weight of tumor,[7],1760±254.6(8) mg
same,Number of tumorless mice /total number of mice,[7],0/8
same,T/control,[7],0.683

# Source: patent publication EP0412158A1, “ONCOSTATIC DRUG” (priority 1987, dated 1988)
